Test results: US20100240763A1, “Method to Determine and Biomarker for Treatment Efficacy With Ssri, Snri, and Sari Antidepressants” (priority 2006, published 2010)
Entries after “also recorded” stand apart in the source; their conditions may differ.

Tests used:
[1] = tested on: BDNF^Met/Met, BDNF^+/− and wild-type mice; test: open-field test after long-term fluoxetine; assay type: in vivo; details: fluoxetine orally 18 mg/kg of body weight per day for 21 days vs vehicle
Procedure: In the open-field test, percentage of time spent in the center in the absence (H2O) or presence of fluoxetine (drug) treatment was measured. […] All results are presented as means±SEM determined from analysis of eight mice per genotype (*P<0.05, **P<0.01). […] BDNF^Met/Met were treated orally with fluoxetine (18 mg/kg of body weight per day) or vehicle for 21 days before assessment in two tests: open field and novelty-induced hypophagia.

[2] = tested on: transgenic mice homozygous for the G196A polymorphism and control wild-type mice; test: anxiety-related behaviors in conflict/stress tests (open field, elevated plus maze, novelty induced hypophagia) after chronic fluoxetine; assay type: in vivo; details: chronic administration
Procedure: Second, we determined that these mice have increased anxiety-related behaviors as assessed by 3 conflict/stress tests (open field, elevated plus maze, novelty induced hypophagia). These tests for anxiety differ from those used in human studies in that the animals' anxiety-related behaviors are assessed after placement in a stressful environment.

CNCCC(Oc1ccc(C(F)(F)F)cc1)c1ccccc1 (stereo not drawn) [fluoxetine]
entries into the center ([1]; BDNF^Met/Met mice): blunted response
time spent in the center ([1]; BDNF^Met/Met mice, 18 mg/kg/day): blunted response; also recorded: Decreased response
entries into the center ([1]; wild-type mice): increase in entries into the center
time spent in the center ([1]; wild-type mice): significant increase
anxiety-related behaviors ([2]; control wild-type mice): could robustly diminish
reversal of anxiety-related behaviors ([2]; transgenic mice homozygous for the G196A polymorphism): could not reverse
